Data from patent US20070299136A1, “Crystalline and Amorphous Forms of Efaproxiral Sodium” (priority 2004, published 2007).

How the values were obtained:
Format in all cases: physicochemical
[1] = Solid form remaining after heating or drying (XRPD)
Method: XRPD analyses were carried out on a Shimadzu XRD-6000 X-ray powder diffractometer using Cu Kα radiation. The instrument is equipped with a long fine focus X-ray tube. The tube voltage and amperage were set at […] and 40 mA, respectively. The divergence and scattering slits were set at 1° and the receiving slit was set at 0.15 mm. Diffracted radiation was detected by a […] scintillation detector. A theta-two theta continuous scan at 3′/min (0.4 sec/0.02° step) from 2.5 to 40 °2θ was used. A silicon standard was analyzed each day to check the instrument alignment. Samples were analyzed with an aluminum/silicon sample holder.
Efaproxiral sodium Form A (1125.7 mg) was dissolved completely in […] of ethanol at 48° C. Acetone (7600 μL) was slowly added over a one minute period. Form G and Form Q formed in the reactor at this time. After 1 minute 50 seconds, a further 6250 μL of acetone was added and the reactor was allowed to cool to approximately 25° C. and then to approximately 15° C. The solid material in the reactor during this interval was Form Q. After approximately 10 minutes had passed from the initial addition of acetone, the resulting powdery white solid was collected by vacuum filtration, washed with 6000 μL acetone and dried in a 52° C. vacuum oven.

[2] = Moisture balance / relative humidity exposure of efaproxiral sodium solid forms; settings: for solid form after relative humidity is decreased to 5%: RH lowered to about 5% RH, sodium salt
Method: Approximately 100 mg of efaproxiral sodium Form A was placed in a 20 mL glass vial. The vial was placed, uncapped, in an ambient temperature relative humidity jar at 75% relative humidity for approximately 24 hours.
A quantity of Form A was placed on a weigh pan at about 0% relative humidity (RH). The RH was slowly raised to about 95% (adsorption) and was then lowered back to about 5% RH (desorption). The weight of the solid material was measured throughout. The results are depicted in FIG. 10. […] The resulting Form I loses slightly less than 4 moles of water as the humidity is further lowered to about 5% RH.

[3] = Thermogravimetric analysis (TGA) of solvated forms, ambient to 165° C.; settings: for TGA weight loss: temperature raised from ambient to 165° C., sodium salt
Method: A screen for polymorphs and solvates of efaproxiral sodium was performed using a variety of crystallization techniques. The resulting polymorphs were analyzed using a number of analytical techniques well known in the art for their ability to differentiate between different polymorphs, including thermogravimetric analysis (TGA), reflectance Fourier transform infrared (FTIR) spectroscopy (see EXAMPLE 2), and X-ray powder diffraction (XRPD) (see EXAMPLE 3). TGA is often very useful for distinguishing between different solid forms of a material because the temperature(s) at which a physical change in a material occurs is usually characteristic of the polymorph or solvate. X-Ray Powder Diffraction (XRPD) is a technique that detects long-range and short-range order in a crystalline material. IR spectroscopy also detects both intramolecular and intermolecular bonding in solids, and further provides information regarding the chemical composition of the crystalline material.

[4] = Form A exposed to approximately 95% humidity

Cc1cc(C)cc(NC(=O)Cc2ccc(OC(C)(C)C(=O)[O-])cc2)c1.[Na+] [Form F, 2-[4-[2-[(3,5-dimethylphenyl)amino]-2-oxoethyl]phenoxy]-2-methyl-propionic acid, sodium salt]
removal of lattice solvent (methanol) by heating ([1]; 80° C. for approximately 3 hours): can be removed

Cc1cc(C)cc(NC(=O)Cc2ccc(OC(C)(C)C(=O)[O-])cc2)c1.[Na+] [Form I, 2-[4-[2-[(3,5-dimethylphenyl)amino]-2-oxoethyl]phenoxy]-2-methyl-propionic acid, sodium salt]
solid form after relative humidity is decreased to 5% [2]: amorphous efaproxiral sodium | water lost (desorption) ([2]; humidity further lowered to about 5% RH): less than 4 moles of water

Cc1cc(C)cc(NC(=O)Cc2ccc(OC(C)(C)C(=O)[O-])cc2)c1.[Na+] [Form Q, 2-[4-[2-[(3,5-dimethylphenyl)amino]-2-oxoethyl]phenoxy]-2-methyl-propionic acid, sodium salt]
solid form after drying ([1]; 52° C. vacuum oven, 14 hours of drying): Form Q | solid form after drying ([1]; 52° C. vacuum oven, 32 hours of drying): Form Q | solid form after drying ([1]; dried at 70° C. under vacuum): Form B | solid form remaining after heating (XRPD) ([1]; heated to about 165° C.): Form A | solvent loss equivalent to TGA weight loss ([3]; ambient to about 165° C.): ½ to about ⅓ | TGA weight loss [3]: approximately 5.7%

Cc1cc(C)cc(NC(=O)Cc2ccc(OC(C)(C)C(=O)[O-])cc2)c1.[Na+] [Form J, 2-[4-[2-[(3,5-dimethylphenyl)amino]-2-oxoethyl]phenoxy]-2-methyl-propionic acid, sodium salt]
solid form after relative humidity is decreased to 5% [2]: Amorphous material | water lost (desorption) ([2]; humidity lowered from about 95% to about 20% RH, converts to Form I): about 3 moles of water/mole efaproxiral sodium

Cc1cc(C)cc(NC(=O)Cc2ccc(OC(C)(C)C(=O)[O-])cc2)c1.[Na+] [Form P, 2-[4-[2-[(3,5-dimethylphenyl)amino]-2-oxoethyl]phenoxy]-2-methyl-propionic acid, sodium salt]
solid form remaining after heating (XRPD) ([1]; heated to 156° C.): Form A | solvent loss equivalent to TGA weight loss ([3]; ambient to 165° C.): about 1 mole of ethanol per mole of efaproxiral sodium | TGA weight loss [3]: approximately 10.6%

Cc1cc(C)cc(NC(=O)Cc2ccc(OC(C)(C)C(=O)[O-])cc2)c1.[Na+] [Form A, 2-[4-[2-[(3,5-dimethylphenyl)amino]-2-oxoethyl]phenoxy]-2-methyl-propionic acid, sodium salt]
water uptake equivalent to weight gain [2, 4]: approximately 7 moles of water/mole efaproxiral sodium | weight gain [2, 4]: approximately 34% | water uptake equivalent to weight gain ([2]; Form A incubated at high relative humidity): about 4 moles of water/mole efaproxiral sodium | weight gain ([2]; Form A incubated at high relative humidity (75% RH, ambient temperature, approximately 24 hours)): approximately 20% | water gained (adsorption) ([2]; RH raised from about 0% to about 85% RH, converts to Form I): about 4 moles of water/mole efaproxiral sodium | solid form after incubation at high relative humidity ([2]; high relative humidity): Form I | further water gained (adsorption) ([2]; humidity raised further to about 95% RH, converts to Form J): about 3 moles of water/mole efaproxiral sodium
